Legend:
[1] = system: CD69 expression on B cells in human whole blood; assay: Whole Blood Assays of BCR-Stimulated CD69 Expression on B Cells; assay type: cell-based; conditions: anti-human IgM + IL-4 stimulation, 18 h at 37° C.
human recombinant Btk = human recombinant Btk (Homo sapiens (Human), UniProt Q06187); assay: Human Recombinant Btk Enzyme Assay; assay type: biochemical; conditions: human recombinant Btk 1 nM, ATP 20 μM
Jak2 tyrosine kinase = Jak2 tyrosine kinase (Homo sapiens (Human), UniProt O60674); assay: Jak2 Tyrosine Kinase Assay; assay type: biochemical; conditions: for IC50: Jak2 1 nM, ATP 30 μM; for Ratio of Jak2/Btk IC50 values: selectivity for Btk over Jak2, larger value = more selective for Btk
Jak2 tyrosine kinase, sequence (O60674 whole entry): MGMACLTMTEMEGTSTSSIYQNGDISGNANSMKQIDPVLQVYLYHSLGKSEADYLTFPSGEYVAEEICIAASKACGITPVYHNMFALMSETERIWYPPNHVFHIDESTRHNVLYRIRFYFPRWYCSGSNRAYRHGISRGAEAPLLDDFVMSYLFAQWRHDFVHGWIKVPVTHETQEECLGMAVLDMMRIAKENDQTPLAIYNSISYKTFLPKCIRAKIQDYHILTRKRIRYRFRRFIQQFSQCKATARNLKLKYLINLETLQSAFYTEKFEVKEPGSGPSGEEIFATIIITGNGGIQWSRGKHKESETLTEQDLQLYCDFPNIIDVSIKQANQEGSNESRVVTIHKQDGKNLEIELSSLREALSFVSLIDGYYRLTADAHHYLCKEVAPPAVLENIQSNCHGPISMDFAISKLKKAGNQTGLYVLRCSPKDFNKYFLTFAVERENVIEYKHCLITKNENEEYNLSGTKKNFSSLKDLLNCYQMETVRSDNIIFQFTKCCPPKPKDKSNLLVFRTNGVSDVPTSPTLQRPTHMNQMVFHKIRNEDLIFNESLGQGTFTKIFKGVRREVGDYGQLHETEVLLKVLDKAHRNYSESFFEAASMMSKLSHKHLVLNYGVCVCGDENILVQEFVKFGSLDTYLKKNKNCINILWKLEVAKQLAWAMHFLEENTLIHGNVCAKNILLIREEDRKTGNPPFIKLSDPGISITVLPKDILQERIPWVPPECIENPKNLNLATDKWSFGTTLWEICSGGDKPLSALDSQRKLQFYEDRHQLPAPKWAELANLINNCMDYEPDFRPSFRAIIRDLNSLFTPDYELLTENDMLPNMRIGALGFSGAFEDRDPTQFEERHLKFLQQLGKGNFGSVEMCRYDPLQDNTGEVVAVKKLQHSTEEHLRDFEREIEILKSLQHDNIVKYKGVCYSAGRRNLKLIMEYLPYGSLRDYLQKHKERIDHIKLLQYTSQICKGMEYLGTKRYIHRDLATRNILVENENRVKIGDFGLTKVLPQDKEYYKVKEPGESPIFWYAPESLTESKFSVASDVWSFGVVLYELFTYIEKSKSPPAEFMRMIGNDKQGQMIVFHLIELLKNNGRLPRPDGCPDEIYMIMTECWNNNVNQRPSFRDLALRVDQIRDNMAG

human recombinant Btk, sequence (Q06187 whole entry): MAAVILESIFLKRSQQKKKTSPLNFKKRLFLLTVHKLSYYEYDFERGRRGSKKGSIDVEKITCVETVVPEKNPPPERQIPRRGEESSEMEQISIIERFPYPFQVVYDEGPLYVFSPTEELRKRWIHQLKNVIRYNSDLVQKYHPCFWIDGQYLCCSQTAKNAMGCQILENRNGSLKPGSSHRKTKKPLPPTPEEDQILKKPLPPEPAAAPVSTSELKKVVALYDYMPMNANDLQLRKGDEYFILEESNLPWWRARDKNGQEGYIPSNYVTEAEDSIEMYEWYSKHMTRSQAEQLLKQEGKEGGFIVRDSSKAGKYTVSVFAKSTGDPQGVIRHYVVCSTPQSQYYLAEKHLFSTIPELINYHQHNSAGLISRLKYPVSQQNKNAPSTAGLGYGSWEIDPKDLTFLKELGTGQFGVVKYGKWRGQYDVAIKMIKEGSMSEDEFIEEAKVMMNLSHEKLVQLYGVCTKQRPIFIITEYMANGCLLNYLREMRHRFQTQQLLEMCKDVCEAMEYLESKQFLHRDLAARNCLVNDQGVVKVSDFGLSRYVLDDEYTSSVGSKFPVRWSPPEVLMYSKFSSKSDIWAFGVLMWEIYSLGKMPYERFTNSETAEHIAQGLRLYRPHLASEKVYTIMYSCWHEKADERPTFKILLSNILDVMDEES

Row | SMILES | IC50 [1] [nM] | IC50 (human recombinant Btk) [nM] | IC50 (Jak2 tyrosine kinase) [nM] | Ratio of Jak2/Btk IC50 values (Jak2 tyrosine kinase) | IC50 ([1]; B-cell) [nM]
1 | Cc1c(-c2ccc(C(N)=O)c3[nH]c4cc(C(C)(C)O)ccc4c23)cccc1-n1c(=O)cc2c(F)cccn2c1=O [Example 22, 4-(3-(5-Fluoro-1,3-dioxo-1H-pyrido[1,2-c]pyrimidin-2(3H)-yl)-2-methylphenyl)-7-(2-hydroxypropan-2-yl)-9H-carbazole-1-carboxamide] | 91 | 1.7 | 880 | 520 | –
2 | Cc1c(-c2ccc(C(N)=O)c3[nH]c4cc(C(C)(C)O)ccc4c23)cccc1-n1c(=O)cc2c(Cl)cccn2c1=O (atropisomer, axis not shown) [Example 15, 4-(3-(S)-(5-Chloro-1,3-dioxo-1H-pyrido[1,2-c]pyrimidin-2(3H)-yl)-2-methylphenyl)-7-(2-hydroxypropan-2-yl)-9H-carbazole-1-carboxamide] | 59 | 0.41 | 1000 | 2400 | –
3 | COc1ccc2cc(=O)n(-c3cccc(-c4ccc(C(N)=O)c5[nH]c6cc(C(C)(C)O)ccc6c45)c3C)c(=O)n2c1 [Example 10, 7-(2-Hydroxypropan-2-yl)-4-(3-(7-methoxy-1,3-dioxo-1H-pyrido[1,2-c]pyrimidin-2(3H)-yl)-2-methylphenyl)-9H-carbazole-1-carboxamide] | – | 1.4 | 1100 | 790 | 120
4 | [2H]C([2H])([2H])n1c(=O)n(-c2cccc(-c3ccc(C(N)=O)c4[nH]c5cc(C(C)(C)O)ccc5c34)c2C)c(=O)c2cccc(F)c21 (atropisomer, axis not shown) [Example 4, 4-(3-(S)-(8-Fluoro-1-methyl(d3)-2,4-dioxo-1,2-dihydroquinazolin-3(4H)-yl)-2-methylphenyl)-7-(2-hydroxypropan-2-yl)-9H-carbazole-1-carboxamide] | 190 | – | 2000 | – | –
5 | Cc1c(-c2ccc(C(N)=O)c3[nH]c4cc(CN5CCCC5)ccc4c23)cccc1-n1c(=O)cc2c(Cl)cccn2c1=O [Example 31, 4-(3-(5-chloro-1,3-dioxo-1H-pyrido[1,2-c]pyrimidin-2(3H)-yl)-2-methylphenyl)-7-(pyrrolidin-1-ylmethyl)-9H-carbazole-1-carboxamide] | – | – | – | – | 60
6 | Cc1c(-c2ccc(C(N)=O)c3[nH]c4cc(N(C)C)ccc4c23)cccc1-n1c(=O)cc2c(F)cccn2c1=O [Example 29, 7-(dimethylamino)-4-(3-(5-fluoro-1,3-dioxo-1H-pyrido[1,2-c]pyrimidin-2(3H)-yl)-2-methylphenyl)-9H-carbazole-1-carboxamide] | – | – | – | – | 56
7 | Cc1c(-c2ccc(C(N)=O)c3[nH]c4cc(C(C)(C)O)ccc4c23)cccc1-n1c(=O)cc2c(Cl)cccn2c1=O [Example 14, 4-(3-(R)-(5-Chloro-1,3-dioxo-1H-pyrido[1,2-c]pyrimidin-2(3H)-yl)-2-methylphenyl)-7-(2-hydroxypropan-2-yl)-9H-carbazole-1-carboxamide] | 78 | – | – | – | –
8 | Cc1nc(C(N)=O)c2[nH]c3cc(C(C)(C)O)ccc3c2c1-c1cccc(-n2cnc3ccccc3c2=O)c1C [compound 35, 7-(2-Hydroxypropan-2-yl)-3-methyl-4-(2-methyl-3-(4-oxoquinazolin-3(4H)-yl)phenyl)-9H-pyrido[3,4-b]indole-1-carboxamide, reference compound] | – | – | – | 29 | –
9 | Cc1c(-c2ccc(C(N)=O)c3[nH]c4cc(C(C)(C)O)ccc4c23)cccc1-n1c(=O)c2cccc(F)c2n(C)c1=O (atropisomer, axis not shown) [Example 3, 4-(3-(S)-(8-Fluoro-1-methyl-2,4-dioxo-1,2-dihydroquinazolin-3(4H)-yl)-2-methylphenyl)-7-(2-hydroxypropan-2-yl)-9H-carbazole-1-carboxamide] | 190 | – | 1200 | – | –
